Experimental data reported in patent US20040072825A1, “2-(2-(4-((2r)-2-methyl-3-(10h-phenothiazin-10-yl)propyl)-1-piperazinyl)-ethoxy) ethanol, process for the preparation thereof, pharmaceutical compositions containing said compound and therapeutic uses thereof” (priority 2000, published 2004).
Entries after “also recorded” stand apart in the source; their conditions may differ. Marks after values point to notes of the source that are not given here.

Columns and labels:
[1] = biological target: T1, human D3 dopaminergic receptor (Homo sapiens, UniProt P35462); assay: Radioligand binding, human D3 receptor (CHO cell culture)
T1 construct: expressed in transfected cells; host or cells: CHO
T1 sequence (P35462 whole entry): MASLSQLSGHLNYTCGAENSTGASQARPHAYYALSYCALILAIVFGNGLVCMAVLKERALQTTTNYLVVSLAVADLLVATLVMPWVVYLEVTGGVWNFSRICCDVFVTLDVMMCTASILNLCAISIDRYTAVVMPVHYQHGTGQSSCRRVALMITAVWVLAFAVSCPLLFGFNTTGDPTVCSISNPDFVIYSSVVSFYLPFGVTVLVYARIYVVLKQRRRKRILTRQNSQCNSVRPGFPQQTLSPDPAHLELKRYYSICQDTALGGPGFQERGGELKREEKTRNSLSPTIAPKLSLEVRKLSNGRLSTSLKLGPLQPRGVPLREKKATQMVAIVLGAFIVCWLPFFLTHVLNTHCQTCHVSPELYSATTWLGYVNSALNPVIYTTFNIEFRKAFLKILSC
Procedure: (§1) The test substances, biological materials and experimental protocols used in the study are described in Moguilevsky N. et al. (1994) Eur. J. […] List S. J. (1981) Proc. Natl. Acad. Sci.78:2620-2624; MacKenzie R. G. et al. (1994) Eur. J. Pharmacol. 266:79-85; Van Tol et al., (1992) Nature, 358:149-152. […] Filtermat A, Walac), then washed with cold buffer using a filtration unit ‘Cell Harvester’ (Brandel, Packard or Tomtec). The bound radioactivity is measured using a scintillation liquid (Formula 989 or Microscint 0, Packard) or solid (Meltilex B/HS, Wallac), and a scintillation counter (LS 6000, Beckman; Topcount, Packard; Betaplate, Wallac). […] Each experiment was performed in duplicate (n=2). In parallel, a positive control (concentration of reference substance causing 50% inhibition of radioligand specific binding) is tested to validate the assay. For competition experiments, membranes are incubated in the buffer containing the radioligand and increasing concentrations of unlabeled test substances. Each binding assay is validated with a reference compound tested in parallel. […] where BO and BI represent the total binding in the absence and presence of the unlabelled drug (in dpm/assay) and NSB is the amount of non specific binding (in dpm/assay). Analysis of raw data and pIC50 calculation is performed by computerized non-linear curve fitting methods using a set of equations describing competitive interactions between labelled and unlabeled ligands which obey the law of mass action. IC50 represents the concentration of the test substance inhibiting 50% of the specific binding of the radioligand. It is determined in competitive binding experiments by measuring the binding of a single concentration of a radioactive ligand at equilibrium with various concentrations of the unlabeled test substance. pIC50=−log IC50

[2] = test system: postoperative nausea and vomiting; details: prophylactic administration, analgesia with morphine; cited from earlier work
[3] = biological target: human H1 histaminic receptor (Homo sapiens, UniProt P35367); assay: Radioligand binding, human H1 receptor (CHO cell culture)
Chain of human H1 histaminic receptor (P35367 whole entry): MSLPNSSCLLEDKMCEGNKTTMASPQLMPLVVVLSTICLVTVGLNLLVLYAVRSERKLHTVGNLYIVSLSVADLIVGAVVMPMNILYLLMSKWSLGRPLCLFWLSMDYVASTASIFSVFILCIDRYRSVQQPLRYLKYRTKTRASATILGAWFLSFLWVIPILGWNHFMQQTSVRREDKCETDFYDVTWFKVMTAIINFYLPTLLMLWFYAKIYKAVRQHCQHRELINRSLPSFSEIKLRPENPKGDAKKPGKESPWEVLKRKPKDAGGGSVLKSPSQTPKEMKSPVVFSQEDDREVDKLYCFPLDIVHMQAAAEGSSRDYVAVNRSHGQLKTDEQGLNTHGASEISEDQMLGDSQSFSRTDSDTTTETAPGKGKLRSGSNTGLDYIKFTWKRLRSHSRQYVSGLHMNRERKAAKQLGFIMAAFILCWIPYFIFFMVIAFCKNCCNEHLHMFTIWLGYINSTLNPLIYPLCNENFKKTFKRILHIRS
Procedure: as §1

[4] = test system: vomiting induced by cisplatin in ferrets; assay: Cisplatin-induced emesis in ferrets, single oral administration; format: in vivo, ferret; details: for Proportion of animal vomiting: 60 min before cisplatin i.v., 5 h observation
Procedure: Cisplatin-induced emesis in ferrets is largely considered as the most suitable animal model for the study of drug activity against chemotherapy-induced vomiting in man (Georges L. King. Animal models in the study of vomiting. Can. J. Physiol. Pharmacol. 68, 260-268, 1988).
Three compounds, dixyrazine dihydrochloride and its (R) and (S) enantiomers were tested for their activity against vomiting induced by cisplatin in ferrets following single oral administration.
The study involved 14 groups of 8 male ferrets weighing between 0.93 kg and 1.45 kg purchased from the company MARSHALL FARMS (NEW YORK, U.S.). Groups were defined as follows: […]
group 1: control group dosed with the vehicle of test substances (sterile water),
group 2: method-control group dosed with a method-control substance, granisetron ([…], RBI®), at a dose of 0.3 mg/kg,
group 3 to 6: group dosed with diyyrazine dihydrochloride at 4 increasing doses of 7.5, 15, 30 and 60 mg/kg,
group 7 to 10: group dosed with the (R) enantiomer of dixyrazine dihydrochloride at 4 increasing doses of 7.5, 15, 30 and 60 mg/kg,
group 11 to 14: group dosed with the (S) enantiomer of drazine dihydrochloride at 4 increasing doses of 7.5, 15, 30 and 60 mg/kg.
On the day prior to the test, animals were fasted and allowed access only to water.
On the morning of the day of the study, free access to food was allowed for 30 minutes. Subsequently, animals were again put on to a water-only fast for 30 minutes before administration of the three compounds, the vehicle or the method-control substance which were administrated orally in a volume of 5 ml/kg.
Cisplatin was administrated by the intravenous route at a dose of 115 mg/m^2 and in a volume of 115 ml/m^2 (i.e. approximately at 10 mg/kg), 60 minutes after treatment. […] Emesis was characterised by abdominal contractions, which were associated with expulsion or attempted expulsion of stomach contents.
The time to onset of emesis was noted. The number of episodes of vomiting and the number of abdominal retches associated with episodes of emesis were also noted.

[5] = biological target: T2, D4.4 dopaminergic receptor (Homo sapiens, UniProt P21917); assay: Radioligand binding, D4.4 receptor (CHO cell culture)
T2 construct: expressed in transfected cells; host or cells: CHO
T2 sequence (P21917 1-419): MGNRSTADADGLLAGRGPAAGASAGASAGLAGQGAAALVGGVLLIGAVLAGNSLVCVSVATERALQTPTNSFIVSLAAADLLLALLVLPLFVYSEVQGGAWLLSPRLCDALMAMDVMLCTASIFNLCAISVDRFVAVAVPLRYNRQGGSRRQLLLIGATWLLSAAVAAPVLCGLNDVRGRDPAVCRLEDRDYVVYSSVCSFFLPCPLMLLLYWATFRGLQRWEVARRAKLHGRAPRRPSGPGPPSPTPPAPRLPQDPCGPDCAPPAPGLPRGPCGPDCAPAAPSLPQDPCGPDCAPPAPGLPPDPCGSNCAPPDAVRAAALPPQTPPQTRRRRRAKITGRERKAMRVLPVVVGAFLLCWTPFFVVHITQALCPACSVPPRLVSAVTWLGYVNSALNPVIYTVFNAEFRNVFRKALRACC
Procedure: as §1

[6] = biological target: T3, 5-HT2 serotonergic receptor (Rattus norvegicus, UniProt P14842); assay: Radioligand binding, 5-HT2 receptor (rat cerebral cortex)
T3 construct: the rat cerebral cortex (5-HT2 receptor); from tissue; host or cells: rat cerebral cortex
T3 sequence (P14842 whole entry): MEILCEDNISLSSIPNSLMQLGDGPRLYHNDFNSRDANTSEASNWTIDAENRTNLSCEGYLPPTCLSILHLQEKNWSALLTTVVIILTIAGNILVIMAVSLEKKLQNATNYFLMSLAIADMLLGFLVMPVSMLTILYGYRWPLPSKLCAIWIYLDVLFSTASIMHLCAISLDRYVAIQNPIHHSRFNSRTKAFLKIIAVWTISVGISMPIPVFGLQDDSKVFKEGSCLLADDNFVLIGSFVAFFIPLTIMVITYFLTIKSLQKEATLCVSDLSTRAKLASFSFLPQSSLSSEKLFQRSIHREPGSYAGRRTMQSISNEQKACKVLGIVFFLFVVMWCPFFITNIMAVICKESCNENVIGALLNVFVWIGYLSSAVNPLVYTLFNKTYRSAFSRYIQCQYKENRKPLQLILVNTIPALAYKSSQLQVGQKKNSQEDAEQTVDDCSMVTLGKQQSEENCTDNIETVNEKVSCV
Procedure: as §1

[7] = highest dose of 60 mg/kg p.o., 60 mg/kg

**Q.** With `CC(CN1CCN(CCOCCO)CC1)CN1c2ccccc2Sc2ccccc21` (racemic) [Dixyrazine, 2-(2-(4-(2-methyl-3-(10H-phenothiazin-10-yl)propyl)-1-piperazinyl)ethoxy)ethanol, reference compound] as the compound, how does the inhibition at 0.1 µM ([1]; D3, 0.1 μM, mean of duplicate, read-out: percent inhibition of control specific binding) read?
**A.** 84%

**Q.** And the “percent inhibition of control specific binding” value (“percent inhibition” for short) ([1]; D3, 10 μM, mean of duplicate, 10 µM)?
**A.** 100%

**Q.** And the inhibition at 10 µM ([1]; D3, 10 μM, mean of duplicate, read-out: percent inhibition of control specific binding)?
**A.** > 90%

**Q.** What about the IC50 ([1]; D3, competitive binding, read-out: Affinity pIC50 (-log IC50) (converted)) of the same compound?
**A.** 50.1 nM

**Q.** And the “incidence and severity of vomiting (in words)” value [2]?
**A.** reduces the incidence and severity of vomiting

**Q.** What about the “percent inhibition” value ([3]; H1, 10 μM, mean of duplicate, 10 µM) of the same compound?
**A.** 100%

**Q.** What about the inhibition at 10 µM ([3]; H1, 10 μM, mean of duplicate, read-out: percent inhibition of control specific binding) of the same compound?
**A.** > 90%

**Q.** And the IC50 ([3]; H1, competitive binding, read-out: Affinity pIC50 (-log IC50) (converted))?
**A.** 0.501 nM

**Q.** What about the “Time to onset of emesis” value ([4]; 7.5 mg/kg p.o.) of the same compound?
**A.** 90 min

**Q.** What about the “Proportion of animal vomiting” value ([4]; 7.5 mg/kg p.o.) of the same compound?
**A.** 8/8

**Q.** And the “Time to onset of emesis” value ([4]; 15 mg/kg p.o.)?
**A.** 76 min

**Q.** And the “Proportion of animal vomiting” value ([4]; 15 mg/kg p.o.)?
**A.** 5/8

**Q.** And the “Time to onset of emesis” value ([4]; 30 mg/kg p.o.)?
**A.** 73 min

**Q.** And the “Proportion of animal vomiting” value ([4]; 30 mg/kg p.o.)?
**A.** 7/8

**Q.** And the “Time to onset of emesis” value ([4]; 60 mg/kg p.o.)?
**A.** 81 min

**Q.** And the “suppression of vomiting, number of animals” value ([4]; 60 mg/kg p.o.)?
**A.** 5 animals out of 8

**Q.** And the “Proportion of animal vomiting” value ([4]; 60 mg/kg p.o.)?
**A.** 3/8*

**Q.** What about the “antiemetic effect (in words)” value [4, 7] of the same compound?
**A.** induced an antiemetic effect

**Q.** What about the “effect on time to onset of emesis (in words)” value [4, 7] of the same compound?
**A.** no effect; also recorded: did not alter this variable

**Q.** And the “antiemetic effect (in words)” value ([4]; highest dose of 60 mg/kg p.o., listed as dixyrazine dihydrochloride, 60 mg/kg)?
**A.** significantly reduce cisplatin-induced emesis

**Q.** What about the inhibition at 0.1 µM ([5]; D4.4, 0.1 μM, mean of duplicate, read-out: percent inhibition of control specific binding) of the same compound?
**A.** 24%

**Q.** And the “percent inhibition” value ([5]; D4.4, 10 μM, mean of duplicate, 10 µM)?
**A.** 104%

**Q.** And the inhibition at 10 µM ([5]; D4.4, 10 μM, mean of duplicate, read-out: percent inhibition of control specific binding)?
**A.** > 90%

**Q.** And the IC50 ([5]; D4.4, competitive binding, read-out: Affinity pIC50 (-log IC50) (converted))?
**A.** 398 nM

**Q.** What about the “percent inhibition” value ([6]; 5-HT2, 10 μM, mean of duplicate, 10 µM) of the same compound?
**A.** 102%

**Q.** And the IC50 ([6]; 5-HT2, competitive binding, read-out: Affinity pIC50 (-log IC50) (converted))?
**A.** 6.31 nM

**Q.** And the inhibition at 10 µM ([6]; read-out: percent inhibition of control specific binding, 5-HT2, 10 μM, mean of duplicate)?
**A.** > 90%
